“Also recorded” adds a separate entry of the source.
Tested on: Bovine aortic endothelial cells
Test: Changes in thiol metabolism upon γ-glutamyl-cysteine synthetase inhibition (6-plex tagged LC-MS of cell lysates)
Format: cell-based
Conditions: 250 μM BSO for 16 hours vs reduced-serum media control
Description: Cell culture and lysis: Bovine aortic endothelial cells between passage number 7 and 10 were cultured to confluency in 6 cm plates with Dulbecco's modified eagle medium (DMEM) supplemented with 10% fetal bovine serum (FBS) at 37° C. and 5% CO2. Cell media was swapped with DMEM supplemented with 2% FBS and 250 μM BSO. Control plates were swapped to DMEM with 2% FBS. All plates were lysed after 16 hours as previously described (Filla, L. A., et al., Anal Bioanal Chem 2019, 411 (24), 6399-6407). Briefly, the media was removed and the cells were rapidly rinsed with 1 mL of phosphate-buffered saline. Cells were lysed with the addition of 500 μL of cold 80/20 MeOH/H2O containing 100 mM formic acid and 5 μM of D4 homocysteine as an internal standard. Plates were placed on a dry ice-ethanol bath and the cell contents were collected, then centrifuged at 21,100×g for three minutes. The supernatant was immediately collected and stored on dry ice until derivatization.
Thiol Derivatization: Thiol metabolite stocks were created as individual 500 μM vials with 50/50 H2O/MeOH containing 20 mM formic acid and stored at −20° C. to minimize degradation. Lower concentration stocks were produced by further dilution and derivatized immediately. For cell lysate reactions, 100 μL of the lysate was used for each reaction. Thiol metabolites were added to 100 μL of 100 mM ammonium bicarbonate pH 8. An isotopic iodide tag was then immediately added (100 μL, 100 μM) and left at room temperature to react for 16 hours to ensure a complete reaction. All iodide tags and reactions were handled in the dark to prevent degradation. After the reaction was completed, the samples were mixed with the other isotope variants, dried in a vacuum centrifuge, and reconstituted to 100 μL in the starting mobile phase conditions.
Liquid Chromatography: Fused silica capillary (Polymicro Technologies, Phoenix, AZ) was used to fabricate columns with an inner diameter of 50 μm as previously described (Edwards, J. L., et al, Journal of Chromatography A 2007, 1172 (2), 127-134). Briefly, 50 μm inner diameter capillary was cut to 25 cm, a photopolymerized frit placed 30 mm from the end, then a tip pulled with a Sutter P2000 micropipette puller and etched in 50% HF. The capillary bed was packed to 20 cm with Atlantis silica HILIC 3 μm particles (Waters Corp, Milford, MA). After equilibration the capillary was cut to 17.5 cm for analysis. Flow was delivered by a Thermo Vanquish LC (Thermo Fisher Scientific, Waltham, MA) connected to a stainless steel tee to split the flow. A 50 μm×100 cm open capillary was used as the split to direct 115 nL of the total flow and 4 nL injections to the capillary column (split ratio 1:1500 for bulk flow of 175 μL/min and injection of 6 μL). The split ratio was determined by calculating flow through the capillary based on the experimental dead time and column dimensions. Mobile phase A was pure acetonitrile and mobile phase B was 25 mM ammonium acetate in 80/20 (water/ACN) with 0.05% acetic acid as an additive. The gradient is supplied in Table 1 below.
MS Analysis: A Q-Exactive mass spectrometer (Thermo Fisher Scientific, Waltham, MA) was used for all analyses. An MS^1 survey scan operated at a resolution of 17.5K with an ion injection time of 50 ms and AGC of 1e^6 for m/z 250-650. […] These MS^2 scans operated at a resolution of 140K with an ion injection time of 200 ms, AGC of 1e^5, and the optimized collision energy determined for each analyte. […]

Structure (SMILES): CCCCS(=N)(=O)CCC(N)C(=O)O (centres unmarked) [BSO, Buthionine sulfoximine]
- GSH level change (n=3, FIG. 5B): Significant decreases; also recorded: glutathione depletion was observed
- cysteinyl-glycine level change (n=3, FIG. 5B): Significant decreases
- Glutamyl-cysteine level change (n=3, near the limit of detection): did not change significantly
- cysteine level change (n=3, trended upward): did not change
- homocysteine level change (n=3, trended upward): did not change

From patent publication US20240345094A1, “DOUBLE FRAGMENTATION ISOBARIC TAGGING” (Saint Louis University, priority 2023, published 2024)
